From patent US20240425492A1, “POLYMORPHS AS ERBB INHIBITORS” (Black Diamond Therapeutics, Inc., priority 2021, published 2024)
≈ marks a conversion by molar mass, not a printed value. Like-named read-outs stand apart in the source and are kept apart here.

Legend:
physchem = details: 37 °C, thermodynamic from solid
[1] = Solubility study in aqueous media at 37° C. (HPLC of supernatants, pH)
[2] = Bulk stability under accelerated storage conditions (XRPD and HPLC); details: Solid state
[3] = Variable relative humidity XRPD experiments for Form F; assay type: physicochemical
Source text: Protocol 9: Variable relative humidity experiment. Form F was investigated by variable humidity XRPD experiments. […] Form L reverted to Form F in >10% RH. […] See Example 8 for more details.
Form F was investigated by variable humidity XRPD experiments.

[4] = Hygroscopicity by DVS at 25° C.; assay type: physicochemical; details: for Desorp. (%) / Sorp. (%): DVS 25° C.
Experimental: Dynamic Vapor Sorption (DVS): DVS analysis was performed using Intrinsic. Analysis was performed using parameters as set forth below.
The hygroscopicity for Form C and Form F was examined. See, e.g., Table E.

[5] = pH 6.8 (50 mM) phosphate buffer, 37° C.
[6] = 25° C./92.5% RH in an open vial, 2 weeks
[7] = 25° C./92.5% RH in an open vial, 4 weeks
[8] = 40° C./75% RH in an open vial, 2 weeks
[9] = 40° C./75% RH in an open vial, 4 week
[10] = 60° C., tight container, 2 weeks
[11] = 60° C., tight container, 4 weeks

CN1C[C@H]2C[C@@]2(C#Cc2cc3ncnc(Nc4cccc(Cl)c4F)c3cc2NC(=O)/C=C/CN2CCOCC2)C1 [Form F]
solubility (physchem; pH 1, simulated gastric fluid): > 2000 µg/mL | solubility at 2 h (physchem; pH 1, simulated gastric fluid): > 2000 µg/mL | solubility at 24 h (physchem; pH 1, simulated gastric fluid): > 2000 µg/mL | solubility (physchem; pH 2, simulated gastric fluid): > 2000 µg/mL | solubility at 2 h (physchem; pH 2, simulated gastric fluid): > 2000 µg/mL | solubility at 24 h (physchem; pH 2, simulated gastric fluid): > 2000 µg/mL | solubility (physchem; pH 4.5, aqueous buffer): > 2000 µg/mL | solubility at 2 h (physchem; pH 4.5, aqueous buffer): > 2000 µg/mL | solubility at 24 h (physchem; pH 4.5, aqueous buffer): > 2000 µg/mL | solubility (physchem; pH 6.8, aqueous buffer): ~20 µg/mL (≈ 35.6 µM) | solubility at 2 h (physchem; pH 6.8, aqueous buffer): 20.7 µg/mL (≈ 36.9 µM) | solubility at 24 h (physchem; pH 6.8, aqueous buffer): 19.8 µg/mL (≈ 35.3 µM) | solubility (physchem; water): < 10 µg/mL | solubility at 2 h (physchem; water): 7 µg/mL (≈ 12.5 µM) | solubility at 24 h (physchem; water): 7.5 µg/mL (≈ 13.4 µM) | 24 h (pH) of supernatant ([1]; SGF, pH 2.0, 37° C.): pH 3.5 | XRPD of residual solid ([1]; Water, 37° C.): Form F | 24 h (pH) of supernatant ([1]; Water, 37° C.): pH 7.0 | 24 h (pH) of supernatant ([1]; pH 1.0 (0.1N HCl), 37° C.): pH 0.9 | 24 h (pH) of supernatant ([1]; pH 4.5 (50 mM) acetate buffer, 37° C.): pH 4.6 | XRPD of residual solid [1, 5]: Form F | 24 h (pH) of supernatant [1, 5]: pH 6.7 | Bulk (XRPD) [2, 6]: No form change | Purity, Bulk (HPLC) [2, 6]: 95.5% | Bulk (XRPD) [2, 7]: No form change | Purity, Bulk (HPLC) [2, 7]: 94.1% | Bulk (XRPD) [2, 8]: No form change | Purity, Bulk (HPLC) [2, 8]: 94.3% | Bulk (XRPD) [2, 9]: No form change | Purity, Bulk (HPLC) [2, 9]: 91.6% | Bulk (XRPD) [2, 10]: No form change | Purity, Bulk (HPLC) [2, 10]: 90.1% | Bulk (XRPD) [2, 11]: No form change | Purity, Bulk (HPLC) [2, 11]: 82.6% | form conversion in variable humidity XRPD ([3]; 0% RH): converted to a new crystalline form, assigned as Form L | XRPD (form observed) ([3]; 0% RH (12 h), step 8 of humidity sequence): Form L (Only stable in low humidity) | XRPD (form observed) ([3]; 0% RH (24 h), step 9 of humidity sequence): Form L (Only stable in low humidity) | XRPD (form observed) ([3]; 10% RH, step 7 of humidity sequence): Form F | XRPD (form observed) ([3]; 10% RH, step 10 of humidity sequence): Form F | XRPD (form observed) ([3]; 40% RH, step 1 of humidity sequence): Form F | XRPD (form observed) ([3]; 40% RH, step 6 of humidity sequence): Form F | XRPD (form observed) ([3]; 40% RH, step 11 of humidity sequence): Form F | XRPD (form observed) ([3]; 70% RH, step 2 of humidity sequence): Form F | XRPD (form observed) ([3]; 70% RH, step 5 of humidity sequence): Form F | XRPD (form observed) ([3]; 90% RH (3 h), step 3 of humidity sequence): Form F | XRPD (form observed) ([3]; 90% RH (6 h), step 4 of humidity sequence): Form F | 2 h Solubility (pH 5): Degradation | 24 h Solubility (pH 5): Degradation | 2 h Solubility (pH 6.5): Degradation | 24 h Solubility (pH 6.5): Degradation | DVS water uptake from 40% RH to 70% RH ([4]; 25° C., dm/dt = 0.002%): 1.1% water uptake from 40% RH to 70% RH | DVS water uptake from 40% RH to 95% RH ([4]; 25° C., dm/dt = 0.002%): 10.2% water uptake from 40% RH to 95% RH | Desorp. (%) ([4]; Relative Humidity 0%, first Desorp.): 0.0% | Sorp. (%) ([4]; Relative Humidity 0%, second Sorp.): 0.0% | Desorp. (%) ([4]; Relative Humidity 10%, first Desorp.): 1.4% | Sorp. (%) ([4]; Relative Humidity 10%, second Sorp.): 1.3% | Desorp. (%) ([4]; Relative Humidity 20%, first Desorp.): 1.9% | Sorp. (%) ([4]; Relative Humidity 20%, second Sorp.): 1.7% | Desorp. (%) ([4]; Relative Humidity 30%, first Desorp.): 3.6% | Sorp. (%) ([4]; Relative Humidity 30%, second Sorp.): 2.1% | Desorp. (%) ([4]; Relative Humidity 40%, first Desorp.): 6.3% | Sorp. (%) ([4]; Relative Humidity 40%, first Sorp.): 2.5% | Desorp. (%) ([4]; Relative Humidity 40%, second Desorp.): 6.4% | Sorp. (%) ([4]; Relative Humidity 40%, second Sorp.): 2.8% | Desorp. (%) ([4]; Relative Humidity 50%, first Desorp.): 8.0% | Sorp. (%) ([4]; Relative Humidity 50%, first Sorp.): 2.8% | Desorp. (%) ([4]; Relative Humidity 50%, second Desorp.): 7.9% | Sorp. (%) ([4]; Relative Humidity 50%, second Sorp.): 3.2% | Desorp. (%) ([4]; Relative Humidity 60%, first Desorp.): 9.4% | Sorp. (%) ([4]; Relative Humidity 60%, first Sorp.): 3.2% | Desorp. (%) ([4]; Relative Humidity 60%, second Desorp.): 9.3% | Sorp. (%) ([4]; Relative Humidity 60%, second Sorp.): 3.7% | Desorp. (%) ([4]; Relative Humidity 70%, first Desorp.): 10.2% | Sorp. (%) ([4]; Relative Humidity 70%, first Sorp.): 3.6% | Desorp. (%) ([4]; Relative Humidity 70%, second Desorp.): 10.0% | Sorp. (%) ([4]; Relative Humidity 70%, second Sorp.): 4.2% | Desorp. (%) ([4]; Relative Humidity 80%, first Desorp.): 11.0% | Sorp. (%) ([4]; Relative Humidity 80%, first Sorp.): 10.4% | Desorp. (%) ([4]; Relative Humidity 80%, second Desorp.): 10.8% | Sorp. (%) ([4]; Relative Humidity 80%, second Sorp.): 10.4% | Desorp. (%) ([4]; Relative Humidity 90%, first Desorp.): 11.8% | Sorp. (%) ([4]; Relative Humidity 90%, first Sorp.): 11.6% | Desorp. (%) ([4]; Relative Humidity 90%, second Desorp.): 11.6% | Sorp. (%) ([4]; Relative Humidity 90%, second Sorp.): 11.4% | Desorp. (%) ([4]; Relative Humidity 95%, first Desorp.): 12.9% | Sorp. (%) ([4]; Relative Humidity 95%, first Sorp.): 12.7% | Desorp. (%) ([4]; Relative Humidity 95%, second Desorp.): 12.2% | Sorp. (%) ([4]; Relative Humidity 95%, second Sorp.): 12.2% | XRPD after DVS test ([4]; DVS at 25° C.): No form change
